Assay: Supersaturation relative to the intrinsic solubility of the compound
Format: physicochemical
Method: A concentrated solution 1 of (S)-1-(3-(((4-amino-2,2-dioxido-1H-benzo[c][1,2,6]thiadiazin-5-yl)oxy)methyl)piperidin-1-yl)-3-methylbutan-1-one at 0.3% (w/w) (3000 ppm) was prepared in water. pH was adjusted to 11 using NaOH to form (S)-1-(3-(((4-amino-2,2-dioxido-1H-benzo[c][1,2,6]thiadiazin-5-yl)oxy)methyl)piperidin-1-yl)-3-methylbutan-1-one sodium salt and obtain an homogeneous solution. Next, a syrup was prepared by mixing an aqueous solution of High Fructose Corn Syrup (HFCS), citric acid and deionized water. The final syrup contained 34% fructose, 0.68% citric acid, 0.1% sodium citrate and 65.22% water, with a pH of 2. An aliquot of solution 1 was diluted 100 times with the syrup to yield a final concentration of 30 ppm of (S)-1-(3-(((4-amino-2,2-dioxido-1H-benzo[c][1,2,6]thiadiazin-5-yl)oxy)methyl)piperidin-1-yl)-3-methylbutan-1-one, i.e. about 18 times above the intrinsic solubility of the compound at 3° C. The sample was kept at 3° C. and the amount of (S)-1-(3-(((4-amino-2,2-dioxido-1H-benzo[c][1,2,6]thiadiazin-5-yl)oxy)methyl)piperidin-1-yl)-3-methylbutan-1-one was measured by UV spectroscopy as a function of time. The amount of (S)-1-(3-(((4-amino-2,2-dioxido-1H-benzo[c][1,2,6]thiadiazin-5-yl)oxy)methyl)piperidin-1-yl)-3-methylbutan-1-one was reduced to 28 ppm after 1 week and first crystals were visually observed. […]
A concentrated solution 1 of (S)-1-(3-(((4-amino-2,2-dioxido-1H-benzo[c][1,2,6]thiadiazin-5-yl)oxy)methyl)piperidin-1-yl)-3-methylbutan-1-one at […] was prepared in water. pH was adjusted to 11 using NaOH to form (S)-1-(3-(((4-amino-2,2-dioxido-1H-benzo[c][1,2,6]thiadiazin-5-yl)oxy)methyl)piperidin-1-yl)-3-methylbutan-1-one sodium salt and obtain an homogeneous solution. […] The sample was kept at 3° C. and the amount of (S)-1-(3-(((4-amino-2,2-dioxido-1H-benzo[c][1,2,6]thiadiazin-5-yl)oxy)methyl)piperidin-1-yl)-3-methylbutan-1-one was measured by UV spectroscopy as a function of time. […]

times above the intrinsic solubility of the compound (final concentration of 18 ppm, at 3° C.): about 11 times
times above the intrinsic solubility of the compound (final concentration of 30 ppm, at 3° C.): about 18 times
times above the intrinsic solubility of the compound (final concentration of 100 ppm, at 20° C.): about 15 times
SMILES: CC(C)CC(=O)N1CCC[C@H](COc2cccc3c2C(N)=NS(=O)(=O)N3)C1 [(S)-1-(3-(((4-amino-2,2-dioxido-1H-benzo[c][1,2,6]thiadiazin-5-yl)oxy)methyl)piperidin-1-yl)-3-methylbutan-1-one]
